Active and inactive are the calls of the source.

These results are taken from ChEMBL document CHEMBL1201862, “PubChem BioAssay data set” (2004).

Data set [1] concerns the target T1, Corticotropin-releasing factor receptor 2/Corticotropin-releasing factor-binding protein (Homo sapiens, UniProt P24387+Q13324).
T1 sequence (Q13324 whole entry): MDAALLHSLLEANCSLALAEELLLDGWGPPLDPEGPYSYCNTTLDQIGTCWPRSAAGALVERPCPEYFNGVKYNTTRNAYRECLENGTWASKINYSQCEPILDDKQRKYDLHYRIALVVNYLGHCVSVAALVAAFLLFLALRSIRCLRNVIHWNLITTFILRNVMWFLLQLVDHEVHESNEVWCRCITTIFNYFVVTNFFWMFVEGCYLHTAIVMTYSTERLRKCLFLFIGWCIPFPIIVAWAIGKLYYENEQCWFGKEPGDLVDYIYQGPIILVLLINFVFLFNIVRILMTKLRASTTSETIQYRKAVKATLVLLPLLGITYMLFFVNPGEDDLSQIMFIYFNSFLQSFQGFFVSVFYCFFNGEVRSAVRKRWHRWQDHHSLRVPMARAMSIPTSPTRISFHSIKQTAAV
T1 sequence (P24387 whole entry): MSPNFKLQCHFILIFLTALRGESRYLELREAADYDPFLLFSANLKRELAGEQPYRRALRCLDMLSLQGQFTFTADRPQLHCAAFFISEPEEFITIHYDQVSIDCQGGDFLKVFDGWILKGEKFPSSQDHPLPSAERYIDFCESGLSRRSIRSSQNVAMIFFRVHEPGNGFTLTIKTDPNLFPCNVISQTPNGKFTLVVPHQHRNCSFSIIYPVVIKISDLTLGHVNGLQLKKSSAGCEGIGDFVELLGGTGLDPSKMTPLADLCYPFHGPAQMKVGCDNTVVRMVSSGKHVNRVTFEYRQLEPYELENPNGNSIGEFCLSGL
Nature of the data set: activators of CRF receptor 2 with binding protein – uHTS hits, confirmation (AID 602473). Type of data set: functional. Particulars: read-out: EC50_Mean.

The target in data set [2] is T1, Corticotropin-releasing factor receptor 2/Corticotropin-releasing factor-binding protein. Put plainly: Dose Response confirmation of uHTS hits for small molecule antagonists of the CRF-binding protein and CRF-R2 receptor complex. Type of data set: functional. Particulars: read-out: IC50_Mean.
Data set [3] deals with H4. Put plainly: Luminescence Cell-Based Dose Response HTS to Identify Activators of 5'UTR Stem-Loop Driven Prion Protein mRNA Translation in H4 Neuroglioblastoma Cells. [Related pubchem assays: 1829 (Project Summary), 1814 (Primary HTS)]. The class given is functional. Particulars: Homo sapiens.
A short description of data set [4]: Luminescence Cell-Based Dose Confirmation HTS to Identify Activators of 5'UTR Stem-Loop Driven Alpha-Synuclein mRNA Translation in H4 Neuroglioblastoma Cells. [Related pubchem assays: 1829 (Project Summary), 1814 (Primary HTS)]. The class given is functional.
Data set [5] in a line: Luminescence Cell-Based Dose Response HTS to Identify Activators of Luciferase Translation or Activity in H4 […] Cells. [Related pubchem assays: 1829 (Project Summary), 1814 (Primary HTS)]. Type of data set: functional.
Data set [6] addresses T2, Zinc finger protein mex-5 (Caenorhabditis elegans, UniProt Q9XUB2).
T2 sequence (Q9XUB2 whole entry): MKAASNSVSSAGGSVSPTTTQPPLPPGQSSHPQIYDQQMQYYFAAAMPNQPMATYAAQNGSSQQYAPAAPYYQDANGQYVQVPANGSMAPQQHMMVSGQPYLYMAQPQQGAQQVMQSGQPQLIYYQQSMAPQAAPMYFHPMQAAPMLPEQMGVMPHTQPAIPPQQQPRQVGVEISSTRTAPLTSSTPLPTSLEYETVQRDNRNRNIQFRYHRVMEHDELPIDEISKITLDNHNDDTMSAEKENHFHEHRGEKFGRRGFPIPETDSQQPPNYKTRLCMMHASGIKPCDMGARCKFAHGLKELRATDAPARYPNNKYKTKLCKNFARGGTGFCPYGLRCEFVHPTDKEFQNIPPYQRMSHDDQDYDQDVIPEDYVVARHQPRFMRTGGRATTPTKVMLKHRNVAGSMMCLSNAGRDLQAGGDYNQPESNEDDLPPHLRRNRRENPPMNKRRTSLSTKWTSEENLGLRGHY
Put plainly: MEX-5/TCR-2 RNA interaction inhibitors, dose response, biochemical, C. elegans, fluorescence polarization (AID 1960).

In data set [7] the target is T3, RNA-binding protein pos-1 (Caenorhabditis elegans, UniProt G5EF15).
T3 sequence (G5EF15 whole entry): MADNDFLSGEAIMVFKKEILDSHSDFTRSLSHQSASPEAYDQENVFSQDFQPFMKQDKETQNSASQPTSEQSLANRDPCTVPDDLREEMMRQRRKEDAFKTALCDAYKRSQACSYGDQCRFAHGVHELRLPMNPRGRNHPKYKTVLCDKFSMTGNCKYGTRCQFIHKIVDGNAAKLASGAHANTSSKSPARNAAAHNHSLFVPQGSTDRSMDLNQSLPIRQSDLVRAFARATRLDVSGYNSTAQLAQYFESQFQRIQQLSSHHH
Put plainly: inhibitors of POS-1/mex-3 RNA binding, dose response, biochemical, fluorescence polarization (AID 1964).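 Also: purified POS-1 fused to maltose binding protein made in E. coli; potency of compounds blocking POS-1 binding to fluorescent RNA.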

The target in data set [8] is Cytochrome P450 2C19 (Homo sapiens, UniProt P33261). Nature of the data set: Cytochrome panel assay with activity outcomes. Panel member name: p450-cyp2c19 Compounds with AC50 equal or less than 10 uM are considered active. The class given is functional.
Data set [9] concerns the target Cytochrome P450 2C9 (Homo sapiens, UniProt P11712).
For data set [10], the system named is H9c2. Nature of the data set: cells. Particulars: Rattus norvegicus, H9c2, Myocardium. Type of data set: functional, cell-based.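 Also: confirmatory concentration-response retest of ultra-high-throughput screening hits for modulation of myocardial damage; cell death induced by hydrogen peroxide oxidative stress; compound pretreatment for 60 min then peroxide exposure for 2 h; potency is for protecting the cells against peroxide damage rather than for killing them.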
Data set [11] has as its target T4, Cytochrome P450 1A2 (Homo sapiens, UniProt P05177).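 Also: PubChem cytochrome P450 panel assay, CYP1A2 panel member.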
T4 sequence (P05177 whole entry): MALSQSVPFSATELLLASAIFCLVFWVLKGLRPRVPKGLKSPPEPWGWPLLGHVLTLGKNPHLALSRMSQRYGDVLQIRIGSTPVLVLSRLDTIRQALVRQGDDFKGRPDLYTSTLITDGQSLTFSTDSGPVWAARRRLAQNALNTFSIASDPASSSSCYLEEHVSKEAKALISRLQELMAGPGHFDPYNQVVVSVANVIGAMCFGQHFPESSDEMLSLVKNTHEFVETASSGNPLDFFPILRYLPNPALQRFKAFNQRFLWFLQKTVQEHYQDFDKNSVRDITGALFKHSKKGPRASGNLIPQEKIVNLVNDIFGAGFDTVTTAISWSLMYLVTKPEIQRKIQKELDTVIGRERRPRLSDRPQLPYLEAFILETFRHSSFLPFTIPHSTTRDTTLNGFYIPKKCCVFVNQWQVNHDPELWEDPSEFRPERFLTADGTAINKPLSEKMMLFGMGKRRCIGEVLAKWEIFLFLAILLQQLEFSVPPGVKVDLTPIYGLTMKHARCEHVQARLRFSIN

Chain of Cytochrome P450 2C19 (P33261 whole entry): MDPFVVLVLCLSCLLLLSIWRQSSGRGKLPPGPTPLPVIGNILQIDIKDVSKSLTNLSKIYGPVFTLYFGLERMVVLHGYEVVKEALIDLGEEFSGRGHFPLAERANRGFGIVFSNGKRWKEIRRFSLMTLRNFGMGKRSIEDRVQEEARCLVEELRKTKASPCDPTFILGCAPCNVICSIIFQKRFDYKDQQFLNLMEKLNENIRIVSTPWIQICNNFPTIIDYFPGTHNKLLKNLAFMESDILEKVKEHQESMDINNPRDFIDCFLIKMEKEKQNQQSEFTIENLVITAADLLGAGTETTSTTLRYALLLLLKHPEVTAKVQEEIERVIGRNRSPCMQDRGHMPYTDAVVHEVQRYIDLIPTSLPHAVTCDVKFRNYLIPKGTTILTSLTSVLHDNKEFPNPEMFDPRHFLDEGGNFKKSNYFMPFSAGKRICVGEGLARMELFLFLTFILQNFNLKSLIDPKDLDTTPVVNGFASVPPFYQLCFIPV
Chain of Cytochrome P450 2C9 (P11712 whole entry): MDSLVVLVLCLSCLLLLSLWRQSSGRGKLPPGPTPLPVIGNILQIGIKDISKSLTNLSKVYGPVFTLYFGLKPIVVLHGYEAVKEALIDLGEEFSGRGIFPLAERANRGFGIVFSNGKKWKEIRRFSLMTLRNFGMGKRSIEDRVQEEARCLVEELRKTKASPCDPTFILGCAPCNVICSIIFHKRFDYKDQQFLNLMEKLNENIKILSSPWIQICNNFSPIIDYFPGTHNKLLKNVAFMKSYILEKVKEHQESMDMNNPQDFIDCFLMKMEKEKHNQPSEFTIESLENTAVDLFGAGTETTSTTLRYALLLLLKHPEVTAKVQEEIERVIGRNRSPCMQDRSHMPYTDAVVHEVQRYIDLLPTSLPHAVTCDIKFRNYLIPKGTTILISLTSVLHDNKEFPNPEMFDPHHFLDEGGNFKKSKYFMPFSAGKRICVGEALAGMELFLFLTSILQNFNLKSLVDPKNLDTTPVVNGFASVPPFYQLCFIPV

In the case of `CC(N=C1NS(=O)(=O)c2ccccc21)C(=O)N1CCc2ccccc2C1` (configuration not stated), in data set [1], the EC50 is > 53 µM (inactive). Also, in [2], the IC50 was > 47.1 µM (inactive).
As for `COC(=O)c1ccc(C2OCC(C)(C)CO2)cc1`, the EC50 is 24.9 µM (active) in [3], > 120 µM (not active) in [4] and 35.1 µM (active) in data set [5].
Regarding `Cc1ccc(S(=O)(=O)NN=C(S)Nc2cccc(F)c2)cc1`, in [1], the EC50 is > 53 µM (inactive). The IC50 in data set [2] is > 47.1 µM (inactive).
Consider `CSc1ccccc1NC(=O)c1cc(-c2cccs2)on1`, for which the EC50 in data set [3] is 17.9 µM (active); in data set [4] it was 55.7 µM (active); in data set [5] it was > 120 µM (not active).
As for `CC(=O)c1ccc(N(C(=O)Cn2nnc3ccccc32)C(C(=O)NCc2ccccc2)c2ccccn2)cc1` (configuration not stated), the EC50 is > 120 µM (not active) in [3], > 120 µM (not active) in data set [4] and 8.14 µM (active) in [5].
Take `CC(C)OC(=O)CC(=O)c1sc2nc3c(cc2c1N)CN(C)CC3`: the EC50 was 19.3 µM (inconclusive) in data set [6] and > 300 µM (not active) in [7].
Regarding `Cc1ccc(Oc2nn[nH]n2)cc1`, the EC50 in data set [3], in data set [4] and in data set [5] was > 120 µM (not active) throughout. Moreover, the AC50 result in data set [8] is “inconclusive”; in [9] it was 7.08 µM (inconclusive).
Regarding `COC(=O)c1ccc(C)c(-n2c(C)cc(C=O)c2C)c1`, the EC50 in data set [6] and in data set [7] was > 300 µM (not active) in each case.
Turning to `Cc1cc(NC(=O)CSc2nc3c(C)cccc3cc2C#N)no1`, the EC50 in data set [3] was 16.1 µM (active); in data set [4], 47.9 µM (active); in data set [5], > 120 µM (not active).
As to `COC/C=C/C1=CC2=CC(=O)C(C)(OC(=O)c3cccs3)C(=O)C2=CO1` (configuration not stated), the results for the EC50 in data set [6] and in data set [7] were 51.8 µM (active) and > 300 µM (not active), respectively.
For `Cc1cc(NC(=O)Cn2nc3c(cc2=O)CCCC3)ccc1Br`, the EC50 in data set [1] was > 53 µM (inactive). Also, the IC50 in data set [2] was > 47.1 µM (inactive).
Consider `COc1ccc(N2CCN(CCCNC(=O)CN3CCN(Cc4ccccc4C)C3=O)CC2)cc1`, for which the EC50 in [1] was > 53 µM (inactive). The IC50 in data set [2] was > 47.1 µM (inactive).
For the compound `Clc1ccc(-c2csc(N3CCC(c4ccccc4)C3)n2)cc1` (configuration not stated), the EC50 in [3] is 31.5 µM (active); in [4], 18.5 µM (active); in data set [5], 25.7 µM (active).
Take `Nn1c(SCc2ccccc2)nnc1C1CCCCC1`: the EC50 in [3] was 21 µM (active); in [4], 25.5 µM (active); in [5], 10.6 µM (active).
In the case of `O=C(CSCc1cccc(F)c1)N1CCN(c2ccccc2)CC1`, the results for the EC50 in [3], in data set [4] and in data set [5] were > 120 µM (not active), 0.47 µM (active) and 6.73 µM (active), respectively.
In the case of `Cc1ccc(N/C=C(/C#N)c2ccsc2)cc1`, the EC50 in data set [3] was 68.4 µM (active); in data set [4], 46.7 µM (active); in [5], 52.3 µM (active).
Turning to `Cc1ccc(-c2ccccc2)n1-c1cccc(C(=O)O)c1`, the EC50 in [6] is > 300 µM (not active); in [7], 109 µM (active).
`Cc1nc2ccccc2c2c(N)c3ccccc3n12`: the IC50 in [10] is 21.6 µM (active).
Take `O=[N+]([O-])c1ccccc1S(=O)(=O)n1nnc2ccccc21`: the EC50 in [6] and in data set [7] was > 300 µM (not active) in each case.
`CCOC(=O)[C@@]1(C#N)C(c2ccc(Cl)c(Cl)c2)[C@H](C(N)=O)N2C=C(C(C)=O)C=C[C@H]21` (some centres not stated): the EC50 in data set [6] is 24 µM (inconclusive); in data set [7], 55.7 µM (inconclusive).
`COc1ccc(CNC(=O)COC(=O)c2cc(-c3ccc(Cl)s3)nc3ccccc23)cc1`: the EC50 was 58.6 µM (active) in data set [6] and 92.1 µM (active) in data set [7].
Consider `CC(C)c1ccc(C2C(C#N)=C(N)N3C(=C2C#N)Sc2ccccc23)cc1` (configuration not stated), for which the figures for the AC50 in data set [11], in data set [8] (read-out: AC50) and in data set [9] were 25.1 µM (inconclusive), 14.1 µM (inconclusive) and 10 µM (inconclusive), respectively. The EC50 in [6] is 61.3 µM (active); in [7], 33 µM (inconclusive).
On to `COC(=O)C1CSc2[nH]c(=O)sc2C1c1ccc(O)c(OC)c1` (configuration not stated), for which the EC50 in data set [1] is > 53 µM (inactive). In addition, the IC50 in data set [2] is > 47.1 µM (inactive).
For the compound `COc1cc(C2C(C#N)=C(N)OC3=C2C(=O)CCC3)ccc1OC(=O)N1CCOCC1` (configuration not stated), the EC50 in data set [6] and in data set [7] was > 300 µM (not active) throughout.
As to `N#CC(c1nc2ccccc2nc1OCCO)S(=O)(=O)c1ccccc1` (configuration not stated), the EC50 in data set [6] is 142 µM (inconclusive); in data set [7] it was > 300 µM (not active).
For `Nc1c(C(=O)N2CCCCCC2)oc2ccccc12`, in [1], the EC50 was > 53 µM (inactive). Moreover, the IC50 in data set [2] is > 47.1 µM (inactive).
In the case of `CN(Cc1ccccc1)C(=O)c1cccc(NC(=O)Cc2ccc(NC(=O)C3CCCN(C(=O)CCc4ccccc4)C3)cc2)c1` (configuration not stated), the EC50 in data set [1] was > 53 µM (inactive). For the same compound, in data set [2], the IC50 was > 47.1 µM (inactive).
For `CC1=CC(C)(C(Cl)(Cl)Cl)C(C)=CC1=NO` (configuration not stated), the EC50 in data set [1] was > 53 µM (inactive). Besides, the IC50 in data set [2] is > 47.1 µM (inactive).
In the same order, the values of `Cc1ccccc1N(CC(=O)N1CCN(Cc2ccccc2)CC1)S(C)(=O)=O` are > 53 µM (inactive) and > 47.1 µM (inactive).
Turning to `C/C(=N/C1CC1)C1=C(O)c2ccccc2C1=O`, the EC50 in data set [3] was 6.75 µM (active); in [4] it was > 120 µM (not active); in data set [5], 20.2 µM (active).
With `O=[N+]([O-])c1cccc(/N=C/C=C(/O)c2ccco2)c1`, the EC50 was > 120 µM (not active) in data set [3], 1.14 µM (active) in data set [4] and 17 µM (active) in data set [5].
